Results taken from patent publication US6683047B1, “Method of inhibiting transcription utilizing nuclear receptors” (The Burnham Institute, priority 1990, dated 2004).

T1: RARβ binding to RARE (Homo sapiens, UniProt P10826)
T1 construct: made in house; host or cells: in vitro translation (reticulocyte lysate)
T1 sequence (P10826 1-455): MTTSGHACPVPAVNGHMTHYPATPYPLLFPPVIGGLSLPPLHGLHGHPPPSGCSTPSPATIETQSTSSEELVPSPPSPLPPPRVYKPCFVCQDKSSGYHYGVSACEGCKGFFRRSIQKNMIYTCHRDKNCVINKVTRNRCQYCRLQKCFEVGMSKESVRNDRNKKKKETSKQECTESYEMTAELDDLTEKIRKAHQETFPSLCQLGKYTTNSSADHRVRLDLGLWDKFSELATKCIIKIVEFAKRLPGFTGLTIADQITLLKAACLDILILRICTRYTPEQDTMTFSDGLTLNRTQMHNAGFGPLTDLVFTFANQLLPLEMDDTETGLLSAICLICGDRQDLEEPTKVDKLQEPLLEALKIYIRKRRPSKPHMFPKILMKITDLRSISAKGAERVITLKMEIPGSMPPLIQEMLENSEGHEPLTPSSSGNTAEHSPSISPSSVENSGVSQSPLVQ

B1: RARβ: in vitro synthesized (cell-free translated) retinoic acid receptor β protein (protein, UniProt P10826 1-455, looked up)
Retinoic acid receptor beta: T1 sequence (P10826 1-455)
B2: RARγ: in vitro synthesized (cell-free translated) retinoic acid receptor γ protein (protein, UniProt P13631 1-454, looked up)
Retinoic acid receptor gamma: MATNKERLFAAGALGPGSGYPGAGFPFAFPGALRGSPPFEMLSPSFRGLGQPDLPKEMASLSVETQSTSSEEMVPSSPSPPPPPRVYKPCFVCNDKSSGYHYGVSSCEGCKGFFRRSIQKNMVYTCHRDKNCIINKVTRNRCQYCRLQKCFEVGMSKEAVRNDRNKKKKEVKEEGSPDSYELSPQLEELITKVSKAHQETFPSLCQLGKYTTNSSADHRVQLDLGLWDKFSELATKCIIKIVEFAKRLPGFTGLSIADQITLLKAACLDILMLRICTRYTPEQDTMTFSDGLTLNRTQMHNAGFGPLTDLVFAFAGQLLPLEMDDTETGLLSAICLICGDRMDLEEPEKVDKLQEPLLEALRLYARRRRPSQPYMFPRMLMKITDLRGISTKGAERAITLKMEIPGPMPPLIREMLENPEMFEDDSSQPGPHPNASSEDEVPGGQGKGGLKSPA

What was measured:
[1] = test system: collagenase promoter AP-1 site (RARβ); assay: -73Col-CAT reporter co-transfected with RARβ expression vector in HeLa cells, TPA induced CAT activity; format: cell-based
Description: The −73 Col CAT reporter gene was cotransfected into HeLa with an expression vector for RARβ/ε. Cells were grown in the presence of the indicated amounts of RA and/or TPA.

[2] = test system: collagenase promoter lacking AP-1 site (-63Col-CAT); assay: -63Col-CAT reporter co-transfected with RARβ in HeLa cells; format: cell-based; settings: presence or absence of RA
[3] = test system: TPA induced collagenase promoter activity (TRα); assay: -73 Col CAT reporter in CV-1 cells, T3 dependent repression by TRα; format: cell-based
Description: In addition, applicants have discovered that the thyroid hormone receptor, in the presence of Thyroid hormone, binds AP-1 through a protein/protein interaction and inhibits the transcription of AP-1 activated genes. Specifically, TRα represses TPA induced collagenase promoter activity in a T3 dependent fashion. The −73 Col CAT reporter gene was cotransfected into CV-1 cells with an expression vector for […]. Cells were grown in the presence of the indicated amounts of T3 and/or TPA.

collagenase AP-1 site = assay: Gel retardation assay, binding to DNA fragment containing the collagenase AP-1 site; settings: in vitro synthesized protein, 32P-labelled fragment
Description: In vitro synthesized glucocorticoid receptor (GR) and retinoic acid receptor (RAR) were incubated with ^32P-labelled DNA fragment derived from −73 COL-CAT by Hind III and Bam HI digestion. Protein-DNA complex was analyzed by gel retardation assay. Control represents the binding of unprogrammed reticulocyte lysate.
Gel retardation experiments were carried out with a 60 bp DNA fragment containing the collagenase AP-1 site.

[4] = target: T2, cJun binding to the AP-1 site (Homo sapiens, UniProt P05412); assay: Gel retardation assay, effect on cJun binding to the AP-1 site; settings: one-fold or five-fold excess, 37° C. for 15 minutes
T2 construct: made in house; host or cells: cell-free (in vitro) translation or bacteria
Description: In vitro synthesized cJun protein was incubated with one-fold (1) or five-fold (5) excess of in vitro synthesized RARβ or RARγ protein at 37° C. for 15 minutes. The effect of RARβ or RARγ or cJun binding was analyzed by gel retardation assay.
The Inhibition of cJun binding to the AP-1 site was dependent on the amount of RARs used, and was also observed in response to pre-incubation with in vitro synthesized GR (FIG. 4). As shown for the GRs in Example VI, this in vitro inhibition of cJun binding was ligand independent. The inhibition of Jun binding activity is a specific effect of each receptor because pre-incubation of the cell-free translated RARβ with anti-RAR antibodies prevented this inhibition, while pre-incubation with anti-GR or preimmune serum had no effect. Likewise, the inhibitory activity of cell-free translated GR is inhibited by anti-GR antibodies, but not by anti-RAR or preimmune serum. […] We therefore investigated whether the binding of the heterodimers could also be inhibited by the RAR.

RARβ binding to RARE = target: T1, RARβ binding to RARE; assay: Gel retardation assay, effect on RARβ binding to RARE; settings: bacterially produced cJun pre-incubated with RARβ
Description: In vitro synthesized RAR protein was incubated with ^32P-labelled DNA fragment containing one copy of RARE. The binding of RAR on RARE was analyzed by gel retardation assay. […] C represents the binding of unprogrammed reticulocyte lysate in FIG. 5. To test the effect of cJun protein on RAR binding, excess amount of bacterial expressed Jun protein was incubated with RAR at 37° C. for 15 minutes before the addition of DNA. When anti-cJun (a cJun) was used, it was incubated with Jun protein at room temperature for 45 minutes before mixing with RAR protein.
This inhibition was specific as it was prevented by pre-incubation of cJun with anti-Jun antibodies.

T2 sequence (P05412 whole entry): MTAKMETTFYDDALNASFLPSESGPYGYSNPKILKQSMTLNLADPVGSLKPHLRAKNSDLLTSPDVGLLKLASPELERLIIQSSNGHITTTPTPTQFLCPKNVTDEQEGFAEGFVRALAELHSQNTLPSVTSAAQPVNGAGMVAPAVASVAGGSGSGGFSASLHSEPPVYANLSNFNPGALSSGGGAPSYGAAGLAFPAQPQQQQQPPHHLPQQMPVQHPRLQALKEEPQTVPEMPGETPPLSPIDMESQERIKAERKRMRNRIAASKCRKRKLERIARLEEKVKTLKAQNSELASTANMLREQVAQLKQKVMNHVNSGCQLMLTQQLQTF

Molecule	binding to collagenase AP-1 site or synthetic AP-1 site (collagenase AP-1 site)	inhibition of cJun binding to the AP-1 site [4]	also measured
CC1=C(/C=C/C(C)=C/C=C/C(C)=C/C(=O)O)C(C)(C)CCC1 [RA, retinoic acid]			concentration required for maximal repression of TPA induced activity of -73 Col-CAT [1]: 10^−6 M; IC50 ([1]; Homo sapiens, read-out: half maximal inhibition of TPA induced activity of -73 Col-CAT by RARβ): 1 nM; effect on -63Col-CAT activity [2]: no effect
N[C@@H](Cc1cc(I)c(Oc2ccc(O)c(I)c2)c(I)c1)C(=O)O [T3]			repression of TPA collagenase promoter activity [3]: dependant on the concentration of T3
GR: in vitro synthesized glucocorticoid receptor	did not bind	also observed	
cJun: bacterially produced or in vitro translated cJun protein, AP-1 component	specific binding		inhibition of RARβ DNA binding activity on RARE (RARβ binding to RARE): inhibited its DNA binding activity in a concentration dependent manner
B1	did not bind	significant inhibition	
B2		significant inhibition	
